The record followed here is patent US4889857A, “Quinolonecarboxylic acid compounds and pharmaceutical use thereof” (Yoshitomi Pharmaceutical Industries, Ltd., priority 1987, dated 1989).

Molecules are shown by their SMILES. Values after ≈ are worked out from the molar mass of the structure shown. Read-outs that look alike come from different tables or passages of the source.

The test system of data set [1] is Streptococcus sarivaris IFO 13956. The experiment in a line: Antibacterial activity in vitro (MIC). The class given is cell-based.
Data set [2] relates to Pseudomonas aeruginosa IFO 12582. The experiment in a line: Antibacterial activity in vitro (MIC). The class given is cell-based. The protocol:
(§1) The antibacterial activities in vitro (minimum inhibitory concentration, MIC, μg/ml) of the test compounds were measured according to the standard method of the Japanese Chemotherapy Society (Chemotherapy, Vol. 23, p.1126, 1974).
(§2) (Inoculum size: 10^6 cells/ml, Organisms with asterisk (*) were
(§3) cultivated in a 10% horse bloodadded medium.)

For data set [3], the system named is Xanthomonas maltophilia IFO 12690. The experiment in a line: Antibacterial activity in vitro (MIC). The class given is cell-based. The conditions noted are these: Stenotrophomonas maltophilia, IFO12690; inoculum 10^6 cells/ml. On the procedure: as §1, §2, §3
In data set [4] the test system is Aerobacter aerogenes IFO 12979. The data set is described as follows: Antibacterial activity in vitro (MIC). To be noted: Klebsiella aerogenes, IFO12979. It is filed as cell-based.
For data set [5], the system named is Flavobacterium meningosepticum IFO 12535. The experiment in a line: Antibacterial activity in vitro (MIC). The class given is cell-based. To be noted: Elizabethkingia meningoseptica, IFO12535; inoculum 10^6 cells/ml.
Data set [6] relates to S. aureus 109(MRSA). The experiment in a line: MIC of the infecting organism (Experiment 2). The class given is cell-based. To be noted: Staphylococcus aureus, Table 2. On the procedure:
(§4) Experimental infection was caused by inoculating male mice intraperitoneally with each organism. Each of the test compounds was administered orally to the mice, one hour after the inoculation. […] The Minimum inhibitory concentrations (MIC) were also measured.

Data set [7] concerns S. pneumoniae Type III. The experiment in a line: MIC of the infecting organism (Experiment 2). The class given is cell-based. To be noted: Streptococcus pneumoniae; Table 2. The protocol: as §4
For data set [8], the system named is S. pyogenes C-203. The experiment in a line: MIC of the infecting organism (Experiment 2). The class given is cell-based. The conditions noted are these: Streptococcus pyogenes, C203; Table 2. The protocol:
as §4

Data set [9] concerns E. coli KC-14. The experiment in a line: Protective effect against experimental infection in mice. To be noted: oral, 1 h after i.p. inoculation of 5.75 × 10^4 cells/mouse [488 LD50] with mucin; survival day 7; 95% confidence limit. The class given is in vivo. On the procedure: (§5) Experimental infection was caused by inoculating male mice intraperitoneally with each organism. Each of the test compounds was administered orally to the mice, one hour after the inoculation. The therapeutic effect of each compounds was judged by using a 50% effective dose (ED50) from the survival rate on day 7 after injection by the Probit method as described in Proc. Soc. Exp. Biol. Med., Vol. 57, p.261-264, 1944. The Minimum inhibitory concentrations (MIC) were also measured.
(§6) (The overnight cultures of test organisms with an asterisk (*) were
(§7) diluted with 50% mucin and 0.5 ml of each was injected intraperitoneally
(§8) into mice. A double asterisk (**) means a 95% confidence limit. MRSA mean
(§9) methycillinresistant Staphylococcus aureus.)

Data set [10] relates to S. aureus 109(MRSA). The description is as above. It is filed as in vivo. To be noted: oral, 1 h after i.p. inoculation of 4.93 × 10^8 cells/mouse [5.7 LD50] with mucin; survival day 7; 95% confidence limit. The protocol: as §5, §6, §7, §8, §9
Data set [11] deals with S. aureus Smith. Described as above. The class given is in vivo. To be noted: oral, 1 h after i.p. inoculation of 2.13 × 10^6 cells/mouse [792 LD50] with mucin; survival day 7; 95% confidence limit. On the procedure: as §5, §6, §7, §8, §9
Data set [12] relates to S. pneumoniae Type III. Described as above. The class given is in vivo. To be noted: oral, 1 h after i.p. inoculation of 6.0 × 10^2 cells/mouse [12 LD50]; survival day 7; 95% confidence limit. The protocol: as §5, §6, §7, §8, §9
Data set [13] relates to S. pyogenes C-203. Described as above. It is filed as in vivo. The conditions noted are these: oral, 1 h after i.p. inoculation of 4.42 × 10^4 cells/mouse [680 LD50]; survival day 7; 95% confidence limit. The protocol: as §5, §6, §7, §8, §9
Data set [14] in a line: Acute toxicity. The conditions noted are these: mouse, in vivo. On the procedure:
The compound A was intraveneously (iv) or orally (po) administered to a group of male mice once. After 10 days, the LD50 values were determined by the Litchfield-Wilcoxon method.

Turning to `CNCC1CN(c2c(F)cc3c(=O)c(C(=O)O)cn(C4CC4)c3c2F)CCO1` (stereo not shown) [Compound A, 1-cyclopropyl-6,8-difluoro-1,4,-dihydro-7-[2-(methylaminomethyl)morpholino]-4-oxoquinoline-3-carboxylic acid], the minimal inhibitory concentration (MIC) in data set [1] (IFO13956) was determined as 0.2 µg/mL (≈ 0.508 µM); in [2] (IFO12582), 3.13 µg/mL (≈ 7.96 µM); in [3], 0.1 µg/mL (≈ 0.254 µM); in data set [4], 0.2 µg/mL (≈ 0.508 µM); in [5], 1.56 µg/mL (≈ 3.97 µM); in data set [6], 0.2 µg/mL. In addition, the minimum inhibitory concentration (MIC) in [7] and in data set [8] was 0.05 µg/mL in each case. Also, the ED50 is on record as 0.028(0.019-0.042) mg/mouse in data set [9]; 0.061(0.041-0.093) mg/mouse in [10]; 0.068(0.044-0.104) mg/mouse in [11]; 0.707(0.453-1.104) mg/mouse in data set [12]; 0.214(0.124-0.388) mg/mouse in data set [13]. The 50% lethal dose (LD50) at 240 h in [14] (iv) is 210 mg/kg; in data set [14] (po), over 3000 mg/kg.

Turning to `CC1COc2c(N3CCN(C)CC3)c(F)cc3c(=O)c(C(=O)O)cn1c23` (stereo not shown) [OFLX, 9-fluoro-3-methyl-10-(4-methyl-1-piperazinyl)-7-oxo-2,3-dihydro-7H-pyrido[1,2,3-de][1,4]-benzoxazine-6-carboxylic acid], the MIC in [1] (IFO13956, inoculum 10^6 cells/ml, 10% horse blood-added medium, read-out: MIC) is 3.13 µg/mL (≈ 8.66 µM); in [2] (IFO12582, inoculum 10^6 cells/ml, read-out: MIC) it was 1.56 µg/mL (≈ 4.32 µM); in data set [3] it was 0.05 µg/mL (≈ 0.138 µM); in [4] (inoculum 10^6 cells/ml, read-out: MIC), 1.56 µg/mL (≈ 4.32 µM); in data set [5], 0.78 µg/mL (≈ 2.16 µM); in [6], 0.78 µg/mL. The values for the MIC in data set [7] and in data set [8] were 1.56 µg/mL and 0.78 µg/mL, respectively. The ED50 in data set [9] is 0.018(0.013-0.026) mg/mouse; in data set [10], 0.459(0.257-0.661) mg/mouse; in data set [11], 0.380(0.253-0.601) mg/mouse; in data set [12], over 2 mg/mouse; in data set [13], 1.432(1.006-2.393) mg/mouse.
